# Where a name gives a salt, the structure may show the parent alone. Read-outs that look alike come from different tables or passages of the source.
# Experiments:
# Pythium aphanidermatum = assay: cucumber damping-off, pot test: soil drench of D-tagatose combined with fungicides; details: for Preventive value: alone, soil drench
# Protocol: Five seeds of test plants (cucumber, variety: Sagami hanpaku) were sowed in a pot (5×5 cm), which contains infested soil with Pythium aphanidermatum (mycelium 100 g/1 L soil) and was covered with soil. D-Tagatose was diluted to 5000 ppm and the fungicides were diluted to the concentrations listed in table 18, with distilled water. The pot was drenched with 10 ml of the dilution. After 2 weeks, the disease severity of the test plants was observed and the effectiveness of test sample was judged. Tests were carried out in triplicate using 5 plants for each test set and the preventive value was calculated from the germination rate.
# Plasmopara viticola = details: for Preventive value: alone; for pest or weed control at 0.4 ppm / pest or weed control at 50 ppm / pest or weed control at 250 ppm / pest or weed control at 10 ppm / pest or weed control at 2 ppm: Plasmopara viticola, 168 h, read-out: Preventive value
# Protocol: Test plants (variety: Neo Muscat) were seeded and grown until three leaves. D-Tagatose was diluted to 5000 ppm and the fungicides were diluted to the concentrations listed in table 16, with distilled water, and 10 ml of the dilution was sprayed on the plants. Three days after the spraying of the dilution, the plants were infected by spraying a sporangium suspension of Plasmopara viticola containing 1×10^3/ml and then put for 16 hours in an inoculation chamber (20° C. to 23° C.) to promote disease. The disease severity of the test plants was observed 7 days after inoculation, and the effectiveness of test sample was judged.
# Phytophthora infestans = assay: whole plant or invertebrate; format: in vivo; details: for Preventive value: alone; for pest or weed control at 0.4 ppm / pest or weed control at 50 ppm / pest or weed control at 250 ppm / pest or weed control at 10 ppm / pest or weed control at 2 ppm: Phytophthora infestans, in Solanum lycopersicum, 168 h, read-out: Preventive value
# Sphaerotheca fuliginea = details: for Preventive value: cucumber, compound alone
# Protocol: Test plants (cucumber, variety: Sagami hanpaku) were seeded and grown until the one true leaf stage. D-Tagatose and fungicide were diluted to 5000 ppm and the concentrations listed in table 20, respectively, with distilled water and 10 ml of the dilution was sprayed thoroughly on the plants. Three days after spraying, a condia suspension containing of Sphaerotheca fuliginea were inoculated by spraying on test plants.
# Seven days after inoculation the disease severity of the test plants was observed and the effectiveness of test sample was judged.
# [1] = test system: Erysiphe graminis f.sp. hordei; details: for Preventive value: barley, compound alone
# Protocol: Test plants (barley, variety: Akashinriki) were seeded and grown until the one leaf stage. D-tagatose and fungicide were diluted to 5000 ppm and the concentrations listed in table 21, respectively, with distilled water and 10 ml of the dilution was sprayed thoroughly on the plants. Three days after spraying, a condia suspension of Erysiphe graminis f.sp. hordei was inoculated by spraying on test plants. 7 days after inoculation the disease severity of the test plants was observed and the effectiveness of test sample was judged.
# Puccinia recondita = details: for Preventive value: wheat, compound alone; for pest or weed control at 250 ppm / pest or weed control at 2 ppm / pest or weed control at 50 ppm: Puccinia recondita, in Triticum aestivum, 168 h, read-out: Preventive value
# Protocol: Test plants (variety: Nourin 61 gou) were sowed and grown until two leaves stage.
# D-Tagatose and fungicide were diluted to 10000 ppm and the concentration listed in table 19, respectively, with distilled water, and 10 ml of the dilution was sprayed thoroughly on the plants. Three days after the spraying of the dilution, the plants were inoculated with Puccinia recondita containing 1×10^3/ml and then put for 16 hours in an inoculation chamber (20° C. to 23° C.) to promote disease. Seven days after inoculation the disease severity of the test plants was observed and the effectiveness of test sample was judged.
# [2] = test system: Pseudoperonospora cubensis; details: for Preventive value: alone, curative; for pest or weed control at 0.4 ppm / pest or weed control at 50 ppm / pest or weed control at 250 ppm / pest or weed control at 10 ppm / pest or weed control at 2 ppm: Pseudoperonospora cubensis, in Cucumis sativus, 168 h, read-out: Preventive value
# Protocol: Test plants (cucumber, variety: Sagami hanpaku) were seeded and grown until the one true leaf stage. And then, a sporangium suspension of Pseudoperonospora cubensis containing 1×10^3/ml were spraying for inoculation on the back side of the leaves of test plants and then put for 16 hours in an inoculation chamber (20° C. to 23° C.) to promote disease. For a curative test, the inoculated plants as described above were used.
# D-Tagatose was diluted to 5000 ppm and the fungicides were diluted to the concentrations listed in table 15, with distilled water, and 10 ml of the dilution was sprayed. Seven days after inoculation the disease severity of the test plants was observed and the effectiveness of test sample was judged.
# Botrytis cinerea = details: for Preventive value: tomato, compound alone; for pest or weed control at 250 ppm / pest or weed control at 10 ppm / pest or weed control at 50 ppm / pest or weed control at 2 ppm: Botrytis cinerea, in Solanum lycopersicum, 168 h, read-out: Preventive value
# Protocol: Test plants (tomato, variety: Ogata-fukujyu) were seeded and grown until the three leaf stage. D-Tagatose and fungicide were diluted to 10000 ppm and the concentrations liste in table 23, respectively, with distilled water and 10 ml of the dilution was sprayed on the plants. Three days after spraying the solution, condia suspension of Botrytis cinerea were inoculated by spraying on test plants and then put for 16 hours in an inoculation chamber (20° C. to 23° C.) to promote disease. Seven days after inoculation, the disease severity of the test plants was observed and the effectiveness of test sample was judged.
# [3] = test system: Pseudoperonospora cubensis; details: for Preventive value: alone; for pest or weed control at 0.4 ppm / pest or weed control at 50 ppm / pest or weed control at 250 ppm / pest or weed control at 10 ppm / pest or weed control at 2 ppm: Pseudoperonospora cubensis, in Cucumis sativus, 168 h, read-out: Preventive value
# Protocol: Test plants (cucumber, variety: Sagami hanpaku) were seeded and grown until the one true leaf stage. D-Tagatose was diluted to 5000 ppm and the fungicides were diluted to the concentrations listed in table 14, with distilled water. And then 10 ml of the dilution was sprayed on the test plant. Three days after spraying of the solution, a sporangium suspension of Pseudoperonospora cubensis containing 1×10^3/ml were inoculated by spraying on test plants and then put for 16 hours in an inoculation chamber (20° C. to 23° C.) to promote disease. Seven days after inoculation the disease severity of the test plants was observed and the effectiveness of the test sample was judged. Tests were carried out using two plants for each test set and the disease severity of the test plants was judged in accordance with the following criteria. The preventive value was calculated from the degree of disease severity.
# 0 (No lesion) 1 (Lesion area was not more than 40%) 2 ((Lesion area was 40%-80%) 3 (Lesion area was not less than 80%)
# Preventive value=100{1−(n/N)} N=disease severity of untreated leaf, n=disease severity of the test leaf Synergistic effect was determined by Colby's equation.
# Pyricularia oryze = assay: whole plant or invertebrate; format: in vivo; details: for Preventive value: rice, compound alone
# [4] = Pythium aphanidermatum, in Cucumis sativus, soil, 336 h, read-out: Preventive value
# [5] = Podosphaera fuliginea, in Cucumis sativus, 168 h, read-out: Preventive value
# [6] = Blumeria graminis, in Hordeum vulgare, 168 h, read-out: Preventive value
# [7] = Pyricularia, in Oryza sativa, 168 h, read-out: Preventive value
molecule,measurement,setting,value
Cc1c(Br)c2ccc(F)cc2n1S(=O)(=O)c1ncn(S(=O)(=O)N(C)C)n1 [amisulbrom],Preventive value,Pythium aphanidermatum; 50 ppm,83
CO/C=C(/C(=O)OC)c1ccccc1Oc1cc(Oc2ccccc2C#N)ncn1 [azoxystrobin],Preventive value,Plasmopara viticola; 10 ppm,83
same,Preventive value,Pythium aphanidermatum; 50 ppm,50
same,Preventive value,Phytophthora infestans; 10 ppm,83
same,Preventive value,Sphaerotheca fuliginea; 0.4 ppm,67
same,Preventive value,[1]; 0.4 ppm,50
same,Preventive value,Puccinia recondita; 2 ppm,83
same,Preventive value,[2]; 10 ppm,50
same,Preventive value,Botrytis cinerea; 50 ppm,50
same,Preventive value,[3]; 10 ppm,50
same,Preventive value,Pyricularia oryze; 10 ppm,83
CC(C)OC(=O)N[C@H](C(=O)N[C@H](C)c1nc2ccc(F)cc2s1)C(C)C [benthiavalicarb-isopropyl],pest or weed control at 0.4 ppm,Plasmopara viticola,50%
same,pest or weed control at 250 ppm,Pythium aphanidermatum; [4],0%
same,pest or weed control at 0.4 ppm,Phytophthora infestans,73%
same,pest or weed control at 250 ppm,Sphaerotheca fuliginea; [5],0%
same,pest or weed control at 250 ppm,[1]; [6],0%
same,pest or weed control at 250 ppm,Puccinia recondita,0%
same,pest or weed control at 0.4 ppm,[2],33%
same,pest or weed control at 250 ppm,Botrytis cinerea,0%
same,pest or weed control at 0.4 ppm,[3],73%
O=C(Nc1ccccc1-c1ccc(Cl)cc1)c1cccnc1Cl [boscalid],pest or weed control at 0.4 ppm,Sphaerotheca fuliginea; [5],67%
same,pest or weed control at 0.4 ppm,[1]; [6],17%
same,pest or weed control at 2 ppm,Puccinia recondita,67%
same,pest or weed control at 10 ppm,Botrytis cinerea,67%
N#Cc1c(Cl)c(Cl)c(Cl)c(C#N)c1Cl [chlorothalonil],pest or weed control at 50 ppm,Plasmopara viticola,73%
same,pest or weed control at 50 ppm,Phytophthora infestans,83%
same,pest or weed control at 50 ppm,Sphaerotheca fuliginea; [5],50%
same,pest or weed control at 50 ppm,[1]; [6],33%
same,pest or weed control at 50 ppm,Puccinia recondita,83%
same,pest or weed control at 50 ppm,[2],0%
same,pest or weed control at 50 ppm,Botrytis cinerea,67%
same,pest or weed control at 50 ppm,[3],83%
[Cu+2].[OH-].[OH-] [cupric hydroxide],Preventive value,Plasmopara viticola; 50 ppm,0
same,Preventive value,Phytophthora infestans; 50 ppm,50
same,Preventive value,[2]; 50 ppm,0
same,Preventive value,[3]; 50 ppm,40
Cc1ccc(-c2c(Cl)nc(C#N)n2S(=O)(=O)N(C)C)cc1 [cyazofamid],pest or weed control at 0.4 ppm,Plasmopara viticola,50%
same,pest or weed control at 50 ppm,Pythium aphanidermatum; [4],83%
same,pest or weed control at 0.4 ppm,Phytophthora infestans,17%
same,pest or weed control at 250 ppm,Sphaerotheca fuliginea; [5],0%
same,pest or weed control at 250 ppm,[1]; [6],0%
same,pest or weed control at 250 ppm,Puccinia recondita,0%
same,pest or weed control at 0.4 ppm,[2],0%
same,pest or weed control at 250 ppm,Botrytis cinerea,0%
same,pest or weed control at 0.4 ppm,[3],73%
same,pest or weed control at 250 ppm,Pyricularia oryze; [7],0%
O=C(Cc1ccccc1)N/C(=N\OCC1CC1)c1c(C(F)(F)F)ccc(F)c1F [cyflufenamid],pest or weed control at 0.4 ppm,Sphaerotheca fuliginea; [5],50%
same,pest or weed control at 0.4 ppm,[1]; [6],67%
CCNC(=O)NC(=O)/C(C#N)=N/OC [cymoxanil],pest or weed control at 50 ppm,Plasmopara viticola,73%
same,pest or weed control at 250 ppm,Pythium aphanidermatum; [4],17%
same,pest or weed control at 50 ppm,Phytophthora infestans,83%
same,pest or weed control at 50 ppm,[2],83%
same,pest or weed control at 50 ppm,[3],33%
Cc1cc(C2CC2)nc(Nc2ccccc2)n1 [cyprodinil],pest or weed control at 250 ppm,Plasmopara viticola,0%
same,pest or weed control at 250 ppm,Pythium aphanidermatum; [4],0%
same,pest or weed control at 250 ppm,Phytophthora infestans,0%
same,pest or weed control at 10 ppm,Sphaerotheca fuliginea; [5],67%
same,pest or weed control at 10 ppm,[1]; [6],17%
same,pest or weed control at 250 ppm,Puccinia recondita,67%
same,pest or weed control at 250 ppm,[2],0%
same,pest or weed control at 10 ppm,Botrytis cinerea,73%
same,pest or weed control at 250 ppm,[3],0%
same,pest or weed control at 250 ppm,Pyricularia oryze; [7],73%
COc1ccc(C(=CC(=O)N2CCOCC2)c2ccc(Cl)cc2)cc1OC [dimethomorph],pest or weed control at 10 ppm,Plasmopara viticola,50%
same,pest or weed control at 250 ppm,Pythium aphanidermatum; [4],0%
same,pest or weed control at 10 ppm,Phytophthora infestans,73%
same,pest or weed control at 10 ppm,[2],40%
same,pest or weed control at 10 ppm,[3],67%
CSC1=N[C@@](C)(c2ccccc2)C(=O)N1Nc1ccccc1 [fenamidone],pest or weed control at 2 ppm,Plasmopara viticola,83%
same,pest or weed control at 10 ppm,Pythium aphanidermatum; [4],50%
same,pest or weed control at 2 ppm,Phytophthora infestans,83%
same,pest or weed control at 2 ppm,[2],33%
same,pest or weed control at 2 ppm,[3],33%
O=[N+]([O-])c1cc(C(F)(F)F)c(Cl)c([N+](=O)[O-])c1Nc1ncc(C(F)(F)F)cc1Cl [fluazinam],pest or weed control at 10 ppm,Plasmopara viticola,83%
same,pest or weed control at 10 ppm,Phytophthora infestans,83%
same,pest or weed control at 250 ppm,Sphaerotheca fuliginea; [5],83%
same,pest or weed control at 250 ppm,[1]; [6],83%
same,pest or weed control at 50 ppm,Puccinia recondita,83%
same,pest or weed control at 10 ppm,[2],0%
same,pest or weed control at 50 ppm,Botrytis cinerea,67%
same,pest or weed control at 10 ppm,[3],97%
same,pest or weed control at 10 ppm,Pyricularia oryze; [7],50%
N#Cc1c[nH]cc1-c1cccc2c1OC(F)(F)O2 [fludioxonil],pest or weed control at 10 ppm,Plasmopara viticola,33%
same,pest or weed control at 250 ppm,Pythium aphanidermatum; [4],0%
same,pest or weed control at 10 ppm,Phytophthora infestans,0%
same,pest or weed control at 250 ppm,Sphaerotheca fuliginea; [5],73%
same,pest or weed control at 250 ppm,[1]; [6],73%
same,pest or weed control at 50 ppm,Puccinia recondita,17%
same,pest or weed control at 10 ppm,[2],0%
same,pest or weed control at 2 ppm,Botrytis cinerea,67%
same,pest or weed control at 10 ppm,[3],57%
same,pest or weed control at 50 ppm,Pyricularia oryze; [7],83%
O=C(NCc1ncc(C(F)(F)F)cc1Cl)c1c(Cl)cccc1Cl [fluopicolide],Preventive value,Plasmopara viticola; 10 ppm,73
same,Preventive value,Pythium aphanidermatum; 250 ppm,83
same,Preventive value,Phytophthora infestans; 10 ppm,83
same,Preventive value,[2]; 10 ppm,83
same,Preventive value,[3]; 10 ppm,83
same,Preventive value,Pyricularia oryze; 250 ppm,0
CCO[PH](=O)O [fosethyl],Preventive value,Plasmopara viticola; 250 ppm,0
same,Preventive value,Pythium aphanidermatum; 250 ppm,0
same,Preventive value,Phytophthora infestans; 250 ppm,33
same,Preventive value,Sphaerotheca fuliginea; 250 ppm,17
same,Preventive value,[1]; 250 ppm,17
same,Preventive value,Puccinia recondita; 250 ppm,0
same,Preventive value,[2]; 250 ppm,0
same,Preventive value,[3]; 250 ppm,0
O=C1OCc2c(Cl)c(Cl)c(Cl)c(Cl)c21 [fthalide],pest or weed control at 10 ppm,Pyricularia oryze; [7],50%
Cc1cc(O)no1 [hymexazol],pest or weed control at 250 ppm,Plasmopara viticola,0%
same,pest or weed control at 50 ppm,Pythium aphanidermatum; [4],67%
same,pest or weed control at 250 ppm,Phytophthora infestans,0%
same,pest or weed control at 250 ppm,Sphaerotheca fuliginea; [5],0%
same,pest or weed control at 250 ppm,[1]; [6],0%
same,pest or weed control at 250 ppm,Puccinia recondita,0%
same,pest or weed control at 250 ppm,[2],0%
same,pest or weed control at 250 ppm,Botrytis cinerea,0%
same,pest or weed control at 250 ppm,[3],0%
same,pest or weed control at 250 ppm,Pyricularia oryze; [7],33%
CCCCCCCCCCCCc1ccc(S(=O)(=O)O)cc1.CCCCCCCCCCCCc1ccc(S(=O)(=O)O)cc1.CCCCCCCCCCCCc1ccc(S(=O)(=O)O)cc1.NC(N)=NCCCCCCCCNCCCCCCCCN=C(N)N [iminoctadine albesilate],Preventive value,Plasmopara viticola; 250 ppm,0
same,Preventive value,Phytophthora infestans; 250 ppm,0
same,Preventive value,Sphaerotheca fuliginea; 50 ppm,83
same,Preventive value,[1]; 50 ppm,17
same,Preventive value,Puccinia recondita; 250 ppm,40
same,Preventive value,[2]; 250 ppm,0
same,Preventive value,Botrytis cinerea; 10 ppm,67
same,Preventive value,[3]; 250 ppm,40
same,Preventive value,Pyricularia oryze; 250 ppm,50
CC(C)NC(=O)N1CC(=O)N(c2cc(Cl)cc(Cl)c2)C1=O [iprodione],pest or weed control at 250 ppm,Sphaerotheca fuliginea; [5],33%
same,pest or weed control at 250 ppm,[1]; [6],17%
same,pest or weed control at 250 ppm,Puccinia recondita,33%
same,pest or weed control at 2 ppm,Botrytis cinerea,40%
same,pest or weed control at 250 ppm,Pyricularia oryze; [7],0%
C[C@H]1O[C@H](O[C@H]2[C@H](O)[C@@H](O)[C@@H](O)[C@H](O)[C@@H]2O)[C@@H](N)C[C@@H]1NC(=N)C(=O)O [kasugamycin],Preventive value,Pyricularia oryze; 10 ppm,73
C#CCOc1ccc(CCNC(=O)C(OCC#C)c2ccc(Cl)cc2)cc1OC (stereo not drawn) [mandipropamid],Preventive value,Plasmopara viticola; 0.4 ppm,73
same,Preventive value,Phytophthora infestans; 0.4 ppm,73
same,Preventive value,[2]; 0.4 ppm,40
same,Preventive value,[3]; 0.4 ppm,67
CCCOC(=O)NCCCN(C)C [propamocarb hydrochloride],pest or weed control at 250 ppm,Plasmopara viticola,33%
same,pest or weed control at 250 ppm,Pythium aphanidermatum; [4],0%
same,pest or weed control at 250 ppm,Phytophthora infestans,67%
same,pest or weed control at 250 ppm,[2],40%
same,pest or weed control at 250 ppm,[3],67%
Fc1ccc(Oc2ccnc3cc(Cl)cc(Cl)c23)cc1 [quinoxyfen],pest or weed control at 2 ppm,Sphaerotheca fuliginea; [5],83%
same,pest or weed control at 2 ppm,[1]; [6],93%
same,pest or weed control at 250 ppm,Puccinia recondita,0%
same,pest or weed control at 250 ppm,Botrytis cinerea,0%
Cc1cccc2sc3nncn3c12 [tricyclazole],pest or weed control at 10 ppm,Pyricularia oryze; [7],50%
CCCOC/C(=N\c1ccc(Cl)cc1C(F)(F)F)n1ccnc1 [triflumizole],pest or weed control at 0.4 ppm,Sphaerotheca fuliginea; [5],97%
same,pest or weed control at 0.4 ppm,[1]; [6],50%
same,pest or weed control at 2 ppm,Puccinia recondita,40%
same,pest or weed control at 50 ppm,Botrytis cinerea,67%
OCC1=C[C@H](N[C@H]2C[C@H](CO)[C@@H](O[C@@H]3O[C@H](CO)[C@@H](O)[C@H](O)[C@H]3O)[C@H](O)[C@H]2O)[C@H](O)[C@@H](O)[C@@H]1O [validamycin],pest or weed control at 10 ppm,Pyricularia oryze; [7],50%
CCC(C)(NC(=O)c1cc(Cl)c(C)c(Cl)c1)C(=O)CCl (stereo not drawn) [zoxamide],pest or weed control at 2 ppm,Plasmopara viticola,83%
same,pest or weed control at 250 ppm,Pythium aphanidermatum; [4],0%
same,pest or weed control at 2 ppm,Phytophthora infestans,50%
same,pest or weed control at 2 ppm,[2],33%
same,pest or weed control at 2 ppm,[3],67%
same,pest or weed control at 250 ppm,Pyricularia oryze; [7],0%
manzeb,Preventive value,Plasmopara viticola; 10 ppm,33
same,Preventive value,Phytophthora infestans; 10 ppm,67
same,Preventive value,Sphaerotheca fuliginea; 50 ppm,50
same,Preventive value,[1]; 50 ppm,40
same,Preventive value,Puccinia recondita; 50 ppm,83
same,Preventive value,[2]; 10 ppm,0
same,Preventive value,Botrytis cinerea; 50 ppm,40
same,Preventive value,[3]; 10 ppm,90

# — patent publication US20110281807A1, “PLANT DISEASE CONTROL AGENT COMPRISING D-TAGATOSE AS ACTIVE INGREDIENT, AND PLANT DISEASE CONTROL METHOD” (NATIONAL UNIVERSITY CORPORATION KAGAWA UNIVERSITY, priority 2008, published 2011)
